Some test systems named below: SK-MEL-2 melanoma; NCI-H522 lung; CAKI-1 renal; MALME-3M melanoma; M14 melanoma; IGROV1 ovarian; CCRF-CEM leukemia; U251 CNS.
Holding throughout (test): DTP human tumour cell line panel, 48 h

The structures appear in SMILES notation.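 Each compound was tested at five concentrations against cells in 96-well plates for 48 hours. Here, GI50 denotes the concentration required for 50% inhibition of growth. At the TGI there is no net growth.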 Where only a bound is given, the exact number is not on record here.

As to `CC(C)=CCC/C(C)=C/CC/C(C)=C/C1CCC(=O)C1(C)C` (stereo unspecified), the TGI with SK-MEL-2 melanoma came out at 34.1 µM; in the assay on NCI-H522 lung it was 29 µM; with CAKI-1 renal, 46.8 µM; in the assay on MALME-3M melanoma, 37.5 µM; with M14 melanoma, 42.5 µM; in the assay on IGROV1 ovarian, 39.4 µM. Besides, the results for the total growth inhibition concentration (TGI) in the assay with CCRF-CEM leukemia and in the assay with U251 CNS were 35.4 µM and 32.7 µM, respectively.
In the case of `Cc1nc(-n2nc(-c3ccccc3)cc2-c2ccccc2)sc1C(=O)/C=C/c1ccc(Cl)cc1`, the TGI was 35.7 µM with SK-MEL-2 melanoma; 25.9 µM in the assay on NCI-H522 lung; 62.7 µM in the assay on CAKI-1 renal; 52.5 µM with MALME-3M melanoma; > 100 µM in the assay on IGROV1 ovarian; 78.1 µM in the assay with CCRF-CEM leukemia. In addition, the TGI in the assay with U251 CNS stood at 36.9 µM.
For `[N-]=[N+]=NC1C2CC3CC(C2)CC1C3` (stereo unspecified), the TGI in the assay with SK-MEL-2 melanoma, in the assay on NCI-H522 lung, with CAKI-1 renal, in the assay on MALME-3M melanoma, in the assay on M14 melanoma and with IGROV1 ovarian was > 100 µM throughout. In addition, the TGI in the assay on CCRF-CEM leukemia and with U251 CNS was > 100 µM each time.
For the compound `CCN(CC)/[N+]([O-])=N/OCC(C)O` (stereo unspecified), the TGI with SK-MEL-2 melanoma, with NCI-H522 lung, in the assay with CAKI-1 renal, in the assay with M14 melanoma, with IGROV1 ovarian and in the assay on CCRF-CEM leukemia was > 100 µM each time. For the same compound, the TGI in the assay with U251 CNS is > 100 µM.
Turning to `N.N.NCCCCCN.O=C([O-])CC(=O)[O-].O=C([O-])CC(=O)[O-].[Pt+4].[Pt+4]`, the GI50 in the assay with SK-MEL-2 melanoma was > 100 µM; in the assay with NCI-H522 lung it was > 100 µM; in the assay on MALME-3M melanoma it was > 100 µM; in the assay on M14 melanoma it was > 100 µM; with IGROV1 ovarian, > 100 µM; in the assay with CCRF-CEM leukemia, 34 µM. For the same compound, the GI50 in the assay on U251 CNS was > 100 µM. For the same compound, the TGI in the assay on SK-MEL-2 melanoma, in the assay on NCI-H522 lung, in the assay with MALME-3M melanoma, with M14 melanoma, with IGROV1 ovarian and in the assay with CCRF-CEM leukemia was > 100 µM each time. Further, the TGI with U251 CNS was > 100 µM.
For the compound `CCOc1ncnc2ccc(Cl)c(I)c12`, the TGI with SK-MEL-2 melanoma, in the assay with CAKI-1 renal, in the assay with MALME-3M melanoma, in the assay with M14 melanoma, in the assay on IGROV1 ovarian and in the assay on CCRF-CEM leukemia was > 100 µM each time. For the same compound, in the assay with U251 CNS, the total growth inhibition concentration (TGI) was > 100 µM.
Turning to `COC(=O)C1=C(O)c2cc3c(cc2[C@H](c2cc(OC)c(OC)c(OC)c2)C1)OCO3`, the total growth inhibition concentration (TGI) in the assay with CAKI-1 renal was > 100 µM; in the assay with MALME-3M melanoma, > 100 µM; with M14 melanoma, > 100 µM; in the assay with IGROV1 ovarian, 89.4 µM; with CCRF-CEM leukemia, > 100 µM; with U251 CNS, > 100 µM.
In the case of `COc1cc(/C=C2\Cc3ccccc3C2=O)cc(OC)c1OC`, the concentration for total growth inhibition (TGI) in the assay with SK-MEL-2 melanoma, in the assay on NCI-H522 lung, in the assay with CAKI-1 renal, in the assay on MALME-3M melanoma, with M14 melanoma and in the assay on CCRF-CEM leukemia was > 100 µM in each case. Moreover, the TGI with U251 CNS is > 100 µM.
On to `CC(=O)Oc1cc(Cl)c(OC(C)=O)c2c(OC(C)=O)c(C)c(O[Si](C)(C)C(C)(C)C)cc12`, for which the total growth inhibition concentration (TGI) in the assay on SK-MEL-2 melanoma came to 42.6 µM; in the assay with NCI-H522 lung, 19 µM; in the assay on CAKI-1 renal, 30.7 µM; in the assay on M14 melanoma it was 19.6 µM; in the assay with IGROV1 ovarian it was 12.5 µM; with CCRF-CEM leukemia, 13.5 µM. This compound came in with a TGI with U251 CNS of 6.78 µM.
As for `CN=C(N)NC`, the TGI in the assay with SK-MEL-2 melanoma, in the assay with NCI-H522 lung, with MALME-3M melanoma, in the assay with M14 melanoma, in the assay with IGROV1 ovarian and in the assay on CCRF-CEM leukemia was > 100 µM throughout. Further, the TGI in the assay with U251 CNS was > 100 µM.
For `O=C(COC(=O)c1cccc2c(=O)c3ccccc3[nH]c12)Nc1ccc(S(=O)(=O)Nc2ncccn2)cc1`, the TGI in the assay with NCI-H522 lung was 58.2 µM; in the assay on CAKI-1 renal, > 100 µM; with MALME-3M melanoma, > 100 µM; with M14 melanoma, > 100 µM; in the assay on IGROV1 ovarian, > 100 µM; in the assay with CCRF-CEM leukemia, 67.4 µM. The compound further had a TGI in the assay with U251 CNS of 56.3 µM.
In the case of `Nc1nc(CC2(O)CCCCC2)cc(-c2ccccc2)n1`, the TGI in the assay with SK-MEL-2 melanoma was > 64.8 µM; in the assay on NCI-H522 lung, > 100 µM; in the assay on CAKI-1 renal, > 100 µM; in the assay on M14 melanoma, > 31.6 µM; in the assay with IGROV1 ovarian, > 100 µM; with CCRF-CEM leukemia it was > 95.9 µM. Besides, the total growth inhibition concentration (TGI) with U251 CNS was > 100 µM.
`COc1ccc(/C=C2\CCc3ccccc3C2=O)cc1OC`: the TGI is 83.9 µM in the assay on SK-MEL-2 melanoma; 47 µM in the assay with NCI-H522 lung; > 100 µM in the assay on CAKI-1 renal; > 100 µM in the assay on MALME-3M melanoma; 50 µM in the assay on M14 melanoma; > 100 µM in the assay on IGROV1 ovarian. The TGI in the assay with CCRF-CEM leukemia and in the assay on U251 CNS was > 100 µM throughout.
As to `CC(C)c1cc(C(=O)[O-])c(O)c(C(C)C)c1.CC(C)c1cc(C(=O)[O-])c(O)c(C(C)C)c1.CC(C)c1cc(C(=O)[O-])c(O)c(C(C)C)c1.CC(C)c1cc(C(=O)[O-])c(O)c(C(C)C)c1.CC(C)c1cc(C(=O)[O-])c(O)c(C(C)C)c1.CC(C)c1cc(C(=O)[O-])c(O)c(C(C)C)c1.[Cu+2].[Mn+2].[Mn+2]`, the GI50 with SK-MEL-2 melanoma was 20.4 µM; in the assay on NCI-H522 lung it was 10.9 µM; in the assay with CAKI-1 renal, 30.9 µM; with MALME-3M melanoma, 15.1 µM; in the assay on M14 melanoma, 14.8 µM; in the assay on IGROV1 ovarian it was 15.2 µM. The GI50 in the assay with CCRF-CEM leukemia was 15.8 µM; in the assay with U251 CNS, 9.43 µM. The TGI came out at 42.6 µM with SK-MEL-2 melanoma; 25.1 µM in the assay with NCI-H522 lung; 53.3 µM with CAKI-1 renal; 28.7 µM in the assay on MALME-3M melanoma; 30.4 µM with M14 melanoma; 38.4 µM in the assay on IGROV1 ovarian. Moreover, the values for the TGI in the assay with CCRF-CEM leukemia and in the assay on U251 CNS were 42.8 µM and 22.7 µM, respectively.
In the case of `CC(=O)OC1(C#N)CC2OC1C1N=NN(C(=O)OC(C)(C)C)C21` (stereo unspecified), the TGI was > 100 µM in the assay on SK-MEL-2 melanoma; > 100 µM in the assay with NCI-H522 lung; > 31.6 µM in the assay with CAKI-1 renal; > 68.2 µM with MALME-3M melanoma; 51.2 µM in the assay on M14 melanoma; > 31.6 µM with IGROV1 ovarian. In addition, the TGI in the assay on CCRF-CEM leukemia is 83.8 µM; in the assay with U251 CNS, > 100 µM.
Turning to `CC(C)(C)C1CCC(=O)C(C(O)CC2CC(=O)N(c3ccccc3)C(=O)C2)C1` (stereo unspecified), the concentration for total growth inhibition (TGI) in the assay with NCI-H522 lung, with CAKI-1 renal, in the assay with MALME-3M melanoma, with M14 melanoma, with IGROV1 ovarian and in the assay with CCRF-CEM leukemia was > 100 µM in each case. For the same compound, in the assay on U251 CNS, the TGI is > 100 µM.
`COc1c(Cl)[c]([Hg][O]C(C)=O)c(NCC(C)=O)c(OC)[c]1[Hg][O]C(C)=O`: the GI50 in the assay with SK-MEL-2 melanoma was 11.9 µM; in the assay with NCI-H522 lung it was 1.37 µM; with CAKI-1 renal, 20.2 µM; in the assay on MALME-3M melanoma it was 2.7 µM; in the assay with M14 melanoma, 14.7 µM; in the assay with IGROV1 ovarian, 15.6 µM. In addition, the GI50 in the assay with CCRF-CEM leukemia was 10.3 µM; in the assay with U251 CNS it was 10 µM. In addition, the TGI with SK-MEL-2 melanoma came to 24.9 µM; in the assay with NCI-H522 lung, 4 µM; in the assay on CAKI-1 renal, 35.1 µM; with MALME-3M melanoma, 7.89 µM; in the assay with M14 melanoma it was 28.6 µM; in the assay on IGROV1 ovarian it was 31.6 µM. Further, the TGI in the assay with CCRF-CEM leukemia is 34.4 µM; with U251 CNS, 21.9 µM.
For the compound `CC(C)C1NC(=O)[C@H](C)OC(=O)[C@@H](C(C)C)NC(=O)[C@@H](C)OC(=O)C(C(C)C)NC(=O)[C@H](C)OC1=O` (stereo partly specified), the TGI in the assay on SK-MEL-2 melanoma, in the assay on NCI-H522 lung, in the assay on CAKI-1 renal, in the assay on MALME-3M melanoma, in the assay on M14 melanoma and in the assay with IGROV1 ovarian was > 100 µM each time. Moreover, the TGI with CCRF-CEM leukemia and in the assay on U251 CNS was > 100 µM in each case.
With `CCC(C)(C)NS(=O)(=O)c1ccccc1`, the TGI in the assay on SK-MEL-2 melanoma, with CAKI-1 renal, in the assay with MALME-3M melanoma, with M14 melanoma, in the assay with IGROV1 ovarian and in the assay with CCRF-CEM leukemia was > 100 µM each time. In addition, in the assay with U251 CNS, the TGI was > 100 µM.
In the case of `COc1ccc2c(c1OC)C(C=C(c1ccccc1)c1ccccc1)CN(C)C2` (stereo unspecified), the TGI was determined as 41.5 µM in the assay with NCI-H522 lung; 45.3 µM in the assay on CAKI-1 renal; 38.1 µM with MALME-3M melanoma; 31.3 µM with M14 melanoma; 43.5 µM with IGROV1 ovarian; 56.6 µM in the assay on CCRF-CEM leukemia. In the assay with U251 CNS, this compound returned a TGI of 57.3 µM.
For `C/C(=N\NS(=O)(=O)c1c(C)cc(C)cc1C)c1ccc[n+]([O-])n1`, the TGI in the assay with NCI-H522 lung is 21 µM; in the assay on CAKI-1 renal it was 18.1 µM; with M14 melanoma, 20.7 µM; in the assay with IGROV1 ovarian, 99.2 µM; in the assay on CCRF-CEM leukemia, 18.2 µM; in the assay on U251 CNS it was > 100 µM.
Turning to `CCOC(=O)NC(=O)c1cn(C2OC(COC(=O)CCCCCCCCC(=O)OCC3OC(n4cc(C(=O)NC(=O)OCC)c(=O)[nH]c4=O)C4OC(C)(C)OC34)C3OC(C)(C)OC32)c(=O)[nH]c1=O` (stereo unspecified), the TGI with SK-MEL-2 melanoma, in the assay on CAKI-1 renal, in the assay with MALME-3M melanoma, with M14 melanoma, in the assay on IGROV1 ovarian and with CCRF-CEM leukemia was > 100 µM each time.

The values above are taken from PubChem BioAssay (NCI).
